Laboratory results reported in patent US11708562B2, “Differentiation of human embryonic stem cells” (Janssen Biotech, Inc., priority 2006, dated 2023).

System: H9P83 cells on MATRIGEL and H9P44 cells on MEFs
Assay: Microarray analysis of gene expression after definitive endoderm formation (Table IV)
Format: cell-based, human
Procedure: Controls for each group included cells plated on […]-coated dishes and cultured in MEF-conditioned medium or cells plated on MEFs and cultured in ES medium.
Sample preparation, hybridization, and image analysis were performed according to the Affymetrix Human Genome U133 Plus 2.0 Array. Following normalization and a log transformation, data analysis was performed using OmniViz® software (MA) and […] (VizXLabs, WA). The variability within each treatment and among the different treatments was compared using the Pearson correlation coefficient. […] Significant differences in gene expression between the samples were evaluated using analysis of variance and an F-test with adjusted P-value (Benjamini and Hochberg correction) of ≤0.05. Only genes with a present call were included in the analysis.

[1] = microarray, H9P44 on MEFs, DE stage, 5 days of treatment
[2] = microarray, H9P83 on Matrigel, DE stage, 5 days of treatment

Activin A: a member of the TGFβ superfamily; growth factor (R&D Systems) used to differentiate human embryonic stem cells
SCG5 (NM_003020) gene expression (H9P83 on Matrigel-DE stage, after 5 days of treatment, undifferentiated H9P83 on Matrigel 4.03): 2.53 | C20orf118 (BF437747) gene expression (H9P83 on Matrigel-DE stage, after 5 days of treatment, undifferentiated H9P83 on Matrigel 4.26): 1.99 | C20orf118 (AV715309) gene expression (H9P83 on Matrigel-DE stage, after 5 days of treatment, undifferentiated H9P83 on Matrigel 4.28): 1.89 | LECT1 (NM_007015) gene expression (H9P83 on Matrigel-DE stage, after 5 days of treatment, undifferentiated H9P83 on Matrigel 4.83): 2.27 | SCNN1G (AI985987) gene expression (H9P83 on Matrigel-DE stage, after 5 days of treatment, undifferentiated H9P83 on Matrigel −0.28): −0.99 | PCDH8 (NM_002590) gene expression (H9P83 on Matrigel-DE stage, after 5 days of treatment, undifferentiated H9P83 on Matrigel −0.80): −0.83 | TMEM16A (NM_018043) gene expression (H9P83 on Matrigel-DE stage, after 5 days of treatment, undifferentiated H9P83 on Matrigel −0.90): −1.93 | ATP5S (BE968806) gene expression (H9P83 on Matrigel-DE stage, after 5 days of treatment, undifferentiated H9P83 on Matrigel −1.15): −3.03 | SDK2 (N23651) gene expression (H9P83 on Matrigel-DE stage, after 5 days of treatment, undifferentiated H9P83 on Matrigel −1.16): −2.65 | PAK7 (AB040812) gene expression (H9P83 on Matrigel-DE stage, after 5 days of treatment, undifferentiated H9P83 on Matrigel −1.37): −3.89 | IFIH1 (NM_022168) gene expression (H9P83 on Matrigel-DE stage, after 5 days of treatment, undifferentiated H9P83 on Matrigel −2.03): −2.76 | gene expression ADAMTS5 (NM_007038), H9P44 on MEFs-DE stage [1]: 1.11 | gene expression AF116676 (PRO1957 mRNA), H9P44 on MEFs-DE stage [1]: 4.23 | gene expression AI016316 (ESTs), H9P44 on MEFs-DE stage [1]: 0.25 | gene expression AI222435 (ESTs), H9P44 on MEFs-DE stage [1]: −0.33 | gene expression AK057525 (cDNA FLJ32963), H9P44 on MEFs-DE stage [1]: 4.80 | gene expression BE327172 (v-jun avian sarcoma virus 17 oncogene homolog), H9P44 on MEFs-DE stage [1]: 3.57 | gene expression C9orf19 (AA284532), H9P44 on MEFs-DE stage [1]: 4.93 | gene expression CD99 (U82164), H9P44 on MEFs-DE stage [1]: 6.36 | gene expression CDKN1A (NM_000389), H9P44 on MEFs-DE stage [1]: 4.16 | gene expression CNN1 (NM_001299), H9P44 on MEFs-DE stage [1]: 5.14 | gene expression COL22A1 (AW241910), H9P44 on MEFs-DE stage [1]: 1.90 | gene expression CREB5 (AI819043), H9P44 on MEFs-DE stage [1]: 1.80 | gene expression CXCL1 (NM_001511), H9P44 on MEFs-DE stage [1]: 2.39 | gene expression DNAJB2 (NM_006736), H9P44 on MEFs-DE stage [1]: 3.75 | gene expression DNAJC15 (NM_013238), H9P44 on MEFs-DE stage [1]: 5.58 | gene expression EDG3 (AA534817), H9P44 on MEFs-DE stage [1]: 4.58 | gene expression EMP3 (NM_001425), H9P44 on MEFs-DE stage [1]: 3.13 | gene expression FLNC (NM_001458), H9P44 on MEFs-DE stage [1]: 3.39 | gene expression FN1 (AK026737), H9P44 on MEFs-DE stage [1]: 7.39 | gene expression FN1 (BC005858), H9P44 on MEFs-DE stage [1]: 7.37 | gene expression GADD45A (NM_001924), H9P44 on MEFs-DE stage [1]: 5.38 | gene expression GNA14 (NM_004297), H9P44 on MEFs-DE stage [1]: 2.95 | gene expression HIST1H2BK (BC000893), H9P44 on MEFs-DE stage [1]: 4.81 | gene expression IGSF4 (NM_014333), H9P44 on MEFs-DE stage [1]: 3.79 | gene expression JUN (BG491844), H9P44 on MEFs-DE stage [1]: 5.91 | gene expression KLF6 (AB017493), H9P44 on MEFs-DE stage [1]: 4.87 | gene expression MFAP5 (U37283), H9P44 on MEFs-DE stage [1]: 1.36 | gene expression MYL4 (M36172), H9P44 on MEFs-DE stage [1]: 4.11 | gene expression PALLD (AK025843), H9P44 on MEFs-DE stage [1]: 3.29 | gene expression PDGFC (AB033831), H9P44 on MEFs-DE stage [1]: 0.21 | gene expression PLK2 (NM_006622), H9P44 on MEFs-DE stage [1]: 5.19 | gene expression ST3GAL1 (NM_003033), H9P44 on MEFs-DE stage [1]: 2.74 | gene expression TRDN (AA192306), H9P44 on MEFs-DE stage [1]: 0.57 | gene expression TTC29 (AF345910), H9P44 on MEFs-DE stage [1]: 0.91 | gene expression X58851 (MLC1emb gene), H9P44 on MEFs-DE stage [1]: 4.04 | gene expression ADAMTS5 (NM_007038), H9P83 on Matrigel-DE stage [2]: 1.80 | gene expression AF116676 (PRO1957 mRNA), H9P83 on Matrigel-DE stage [2]: 3.31 | gene expression AI016316 (ESTs), H9P83 on Matrigel-DE stage [2]: 1.19 | gene expression AI222435 (ESTs), H9P83 on Matrigel-DE stage [2]: −0.73 | gene expression AK057525 (cDNA FLJ32963), H9P83 on Matrigel-DE stage [2]: 4.45 | gene expression BE327172 (v-jun avian sarcoma virus 17 oncogene homolog), H9P83 on Matrigel-DE stage [2]: 2.94 | gene expression C9orf19 (AA284532), H9P83 on Matrigel-DE stage [2]: 4.12 | gene expression CD99 (U82164), H9P83 on Matrigel-DE stage [2]: 5.69 | gene expression CDKN1A (NM_000389), H9P83 on Matrigel-DE stage [2]: 4.20 | gene expression CNN1 (NM_001299), H9P83 on Matrigel-DE stage [2]: 5.75 | gene expression COL22A1 (AW241910), H9P83 on Matrigel-DE stage [2]: 1.15 | gene expression CREB5 (AI819043), H9P83 on Matrigel-DE stage [2]: 2.63 | gene expression CXCL1 (NM_001511), H9P83 on Matrigel-DE stage [2]: 2.95 | gene expression DNAJB2 (NM_006736), H9P83 on Matrigel-DE stage [2]: 3.46 | gene expression DNAJC15 (NM_013238), H9P83 on Matrigel-DE stage [2]: 3.79 | gene expression EDG3 (AA534817), H9P83 on Matrigel-DE stage [2]: 3.28 | gene expression EMP3 (NM_001425), H9P83 on Matrigel-DE stage [2]: 3.90 | gene expression FLNC (NM_001458), H9P83 on Matrigel-DE stage [2]: 4.17 | gene expression FN1 (AK026737), H9P83 on Matrigel-DE stage [2]: 6.85 | gene expression FN1 (BC005858), H9P83 on Matrigel-DE stage [2]: 6.86 | gene expression GADD45A (NM_001924), H9P83 on Matrigel-DE stage [2]: 5.04 | gene expression GNA14 (NM_004297), H9P83 on Matrigel-DE stage [2]: 4.52 | gene expression HIST1H2BK (BC000893), H9P83 on Matrigel-DE stage [2]: 3.99 | gene expression IGSF4 (NM_014333), H9P83 on Matrigel-DE stage [2]: 4.12 | gene expression JUN (BG491844), H9P83 on Matrigel-DE stage [2]: 5.45 | gene expression KLF6 (AB017493), H9P83 on Matrigel-DE stage [2]: 4.02 | gene expression MFAP5 (U37283), H9P83 on Matrigel-DE stage [2]: 1.87 | gene expression MYL4 (M36172), H9P83 on Matrigel-DE stage [2]: 3.30 | gene expression PALLD (AK025843), H9P83 on Matrigel-DE stage [2]: 3.38 | gene expression PDGFC (AB033831), H9P83 on Matrigel-DE stage [2]: 0.63 | gene expression PLK2 (NM_006622), H9P83 on Matrigel-DE stage [2]: 5.88 | gene expression ST3GAL1 (NM_003033), H9P83 on Matrigel-DE stage [2]: 1.68 | gene expression TRDN (AA192306), H9P83 on Matrigel-DE stage [2]: 0.02 | gene expression TTC29 (AF345910), H9P83 on Matrigel-DE stage [2]: 1.53 | gene expression X58851 (MLC1emb gene), H9P83 on Matrigel-DE stage [2]: 2.75
